Values quoted from earlier work, collected in US6335015B1, “Method of the prophylactic treatment of mastitis” (Astacarotene AB, priority 1997, dated 2002).

Key:
sows = conditions: feed supplemented with astaxanthin prior to parturition and during lactation
[1] = biological tests

**Q.** Which results are given for `CC1=C(/C=C/C(C)=C/C=C/C(C)=C/C=C/C=C(C)/C=C/C=C(C)/C=C/C2=C(C)C(=O)[C@@H](O)CC2(C)C)C(C)(C)C[C@H](O)C1=O` [astaxanthin]?
**A.** piglets born alive (sows): more piglets born alive; antioxidative properties compared to other carotenoids [1]: clearly the best antioxidative properties
